Measured values reported in PubChem BioAssay AID1919015 (Molecular Pharmacology Branch, DTP, NCI, 2023).

System: OVCAR-5 complex spheroids with HUVEC/MSC, viability, % test/control
Assay: Anticancer human tumor OVCAR-5 cell line growth inhibition [AhR];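 note: spheroids exposed to compounds for 7 days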;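 for viability, T/C: 100% = DMSO vehicle control wells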
Conditions: for IC50: curve of first compound; for viability, T/C: stronger effect = lower value
Outline: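 Agents were dosed in half-log steps down from roughly clinical Cmax, or from 10 microM where Cmax was unknown, alone and with AhR antagonists. Read-out: percent test/control growth of tumor spheroids containing HUVEC and MSC stromal cells.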

[1] = second compound 0.1 µM, first compound 0.0316 µM
[2] = second compound 0.1 µM, first compound 0.1 µM
[3] = second compound 0.1 µM, first compound 0.316 µM
[4] = second compound 0.1 µM, first compound 1 µM
[5] = second compound 0.1 µM, first compound 3.16 µM
[6] = second compound 0.1 µM, first compound 10 µM
[7] = second compound 0.316 µM, first compound 0.0316 µM
[8] = second compound 0.316 µM, first compound 0.1 µM
[9] = second compound 0.316 µM, first compound 0.316 µM
[10] = second compound 0.316 µM, first compound 1 µM
[11] = second compound 0.316 µM, first compound 3.16 µM
[12] = second compound 0.316 µM, first compound 10 µM
[13] = second compound 1 µM, first compound 0.0316 µM
[14] = second compound 1 µM, first compound 0.1 µM
[15] = second compound 1 µM, first compound 0.316 µM
[16] = second compound 1 µM, first compound 1 µM
[17] = second compound 1 µM, first compound 3.16 µM
[18] = second compound 1 µM, first compound 10 µM
[19] = second compound 3.16 µM, first compound 0.0316 µM
[20] = second compound 3.16 µM, first compound 0.1 µM
[21] = second compound 3.16 µM, first compound 0.316 µM
[22] = second compound 3.16 µM, first compound 1 µM
[23] = second compound 3.16 µM, first compound 3.16 µM
[24] = second compound 3.16 µM, first compound 10 µM
[25] = second compound 10 µM, first compound 0.0316 µM
[26] = second compound 10 µM, first compound 0.1 µM
[27] = second compound 10 µM, first compound 0.316 µM
[28] = second compound 10 µM, first compound 1 µM
[29] = second compound 10 µM, first compound 3.16 µM
[30] = second compound 10 µM, first compound 10 µM

Compound | IC50 (second compound 0.1 µM) [µM] | IC50 (second compound 0.316 µM) [µM] | IC50 (second compound 1 µM) [µM] | IC50 (second compound 3.16 µM) [µM] | IC50 (second compound 10 µM) [µM] | viability, T/C [1] [%] | viability, T/C [2] [%] | viability, T/C [3] [%] | viability, T/C [4] [%] | viability, T/C [7] [%] | viability, T/C [8] [%] | viability, T/C [9] [%] | viability, T/C [10] [%] | viability, T/C [13] [%] | viability, T/C [14] [%] | viability, T/C [15] [%] | viability, T/C [16] [%] | viability, T/C [19] [%] | viability, T/C [20] [%] | viability, T/C [21] [%] | other results
CC(C)c1c(-c2ccccc2)nc2c(C#N)c[nH]n2c1=O + CC(CO)NC(=O)c1cc(-c2ccc(Cl)cc2)nn(-c2cnn(C)c2)c1=O | > 10 | > 10 | > 10 | > 10 | > 10 | 117 | 111 | 112 | 115 | 107 | 117 | 114 | 115 | 114 | 121 | 119 | 116 | 99 | 108 | 107 | viability, T/C [5]: 114%; viability, T/C [6]: 116%; viability, T/C [11]: 116%; viability, T/C [12]: 119%; viability, T/C [17]: 117%; viability, T/C [18]: 121%; viability, T/C [22]: 105%; viability, T/C [23]: 111%; viability, T/C [24]: 111%; viability, T/C [25]: 101%; viability, T/C [26]: 105%; viability, T/C [27]: 100%; viability, T/C [28]: 101%; viability, T/C [29]: 103%; viability, T/C [30]: 104%
CC1COCCN1c1cc(-c2ccnn2C)c2ccnc(-c3ccn[nH]3)c2n1 (stereo not given) + CC(CO)NC(=O)c1cc(-c2ccc(Cl)cc2)nn(-c2cnn(C)c2)c1=O | 0.281 | 0.276 | 0.297 | 0.207 | 0.0958 | 110 | 87 | 46.2 | 30.8 | 109 | 87 | 45.1 | 32.1 | 118 | 89 | 48.6 | 35.4 | 102 | 67.6 | 40.3 | viability, T/C (second compound 0.1 µM, first compound 0.00316 µM): 111%; viability, T/C (second compound 0.1 µM, first compound 0.01 µM): 111%; viability, T/C (second compound 0.316 µM, first compound 0.00316 µM): 111%; viability, T/C (second compound 0.316 µM, first compound 0.01 µM): 113%; viability, T/C (second compound 1 µM, first compound 0.00316 µM): 119%; viability, T/C (second compound 1 µM, first compound 0.01 µM): 121%; viability, T/C (second compound 3.16 µM, first compound 0.00316 µM): 106%; viability, T/C (second compound 3.16 µM, first compound 0.01 µM): 115%; viability, T/C [22]: 35%; viability, T/C (second compound 10 µM, first compound 0.00316 µM): 99.7%; viability, T/C (second compound 10 µM, first compound 0.01 µM): 103%; viability, T/C [25]: 83.9%; viability, T/C [26]: 49%; viability, T/C [27]: 35.5%; viability, T/C [28]: 33.5%
COc1ccc([C@@H](O)c2cc(-c3ncnc4cc(N5CCOCC5)ccc34)c(F)cc2Cl)nn1 + CC(CO)NC(=O)c1cc(-c2ccc(Cl)cc2)nn(-c2cnn(C)c2)c1=O | 2.57 | 2.94 | 3.61 | 3.36 | 2.35 | 101 | 107 | 97.6 | 75 | 105 | 105 | 102 | 80.4 | 114 | 115 | 107 | 87.4 | 99.2 | 102 | 87.3 | viability, T/C [5]: 45.3%; viability, T/C [6]: 23.8%; viability, T/C [11]: 48.6%; viability, T/C [12]: 24.4%; viability, T/C [17]: 52.9%; viability, T/C [18]: 28.6%; viability, T/C [22]: 77.5%; viability, T/C [23]: 50.5%; viability, T/C [24]: 27.7%; viability, T/C [25]: 98%; viability, T/C [26]: 96.6%; viability, T/C [27]: 85.4%; viability, T/C [28]: 69%; viability, T/C [29]: 43.3%; viability, T/C [30]: 26.2%
